These results are taken from patent US10385019B2, “Inhibitors of EGFR and methods of use thereof” (Dana-Farber Cancer Institute, Inc., priority 2015, dated 2019).

For this assay, the target named is EGFR T790M/L858R Ba/F3 cell line (Homo sapiens, UniProt P00533, T790M/L858R, cells depend on it). As to the kind of experiment: Ba/F3 cell proliferation model. The note with it: combined with cetuximab (% cetuximab, 1.0 μM drug concentration with 1.0 μg/mL cetuximab). It counts as cell-based, murine. In a few lines: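 Murine Ba/F3 cells made IL-3-independent by retroviral EGFR L858R/T790M, selected in puromycin (2 μg/ml) and kept in RPMI 1640 with 10% FBS. Cells were exposed to serially diluted compound for 72 h, with growth read by MTS assay in six wells per point and ≥3 repeats. Sigmoidal dose-response non-linear regression gave the values.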
Sequence of EGFR T790M/L858R Ba/F3 cell line (P00533 whole entry T790M/L858R): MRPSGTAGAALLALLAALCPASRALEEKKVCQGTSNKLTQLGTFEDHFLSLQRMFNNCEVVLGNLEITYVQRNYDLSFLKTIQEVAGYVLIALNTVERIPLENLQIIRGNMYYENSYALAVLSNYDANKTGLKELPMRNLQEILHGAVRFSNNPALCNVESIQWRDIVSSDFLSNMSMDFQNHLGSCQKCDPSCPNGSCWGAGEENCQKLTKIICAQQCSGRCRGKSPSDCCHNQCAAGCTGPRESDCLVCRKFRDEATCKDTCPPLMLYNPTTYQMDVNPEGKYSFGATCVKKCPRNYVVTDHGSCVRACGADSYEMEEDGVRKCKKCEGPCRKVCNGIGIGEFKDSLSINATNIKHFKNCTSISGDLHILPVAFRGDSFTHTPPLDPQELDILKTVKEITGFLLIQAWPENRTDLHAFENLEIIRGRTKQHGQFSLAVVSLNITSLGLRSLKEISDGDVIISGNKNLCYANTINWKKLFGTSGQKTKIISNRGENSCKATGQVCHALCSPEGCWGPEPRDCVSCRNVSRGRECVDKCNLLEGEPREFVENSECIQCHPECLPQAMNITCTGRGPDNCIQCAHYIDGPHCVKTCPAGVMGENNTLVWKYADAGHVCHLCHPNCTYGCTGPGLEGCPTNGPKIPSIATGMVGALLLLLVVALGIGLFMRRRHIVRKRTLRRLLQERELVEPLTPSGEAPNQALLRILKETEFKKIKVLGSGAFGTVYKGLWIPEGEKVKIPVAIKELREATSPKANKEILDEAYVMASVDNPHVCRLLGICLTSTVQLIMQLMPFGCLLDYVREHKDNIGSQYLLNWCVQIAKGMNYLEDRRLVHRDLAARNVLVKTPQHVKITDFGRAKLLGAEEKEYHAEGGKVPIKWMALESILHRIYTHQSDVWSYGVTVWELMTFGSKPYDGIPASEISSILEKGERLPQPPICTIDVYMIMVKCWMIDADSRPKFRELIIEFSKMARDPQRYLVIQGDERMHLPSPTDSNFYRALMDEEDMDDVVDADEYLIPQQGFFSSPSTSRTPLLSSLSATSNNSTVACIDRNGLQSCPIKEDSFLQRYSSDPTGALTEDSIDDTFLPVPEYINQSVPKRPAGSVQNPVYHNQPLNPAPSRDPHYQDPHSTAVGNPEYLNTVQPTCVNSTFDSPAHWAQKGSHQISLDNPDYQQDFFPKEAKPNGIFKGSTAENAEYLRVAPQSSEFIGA

Take `O=C(NCCN1CCOCC1)c1cccc(-c2ccc3c(c2)C(=O)N([C@@H](C(=O)Nc2nccs2)c2ccccc2)C3)c1` [Compound I-90, (R)-N-(2-morpholinoethyl)-3-(3-oxo-2-(2-oxo-1-phenyl-2-(thiazol-2-ylamino)ethyl)isoindolin-5-yl)benzamide]: the “Activity (% inhibition)” value is “C (a % inhibition of between about 25% to about 50%)”.

Take `O=C(Nc1nccs1)[C@@H](c1ccccc1)N1Cc2ccc(Nc3cccc(CN4CCCC4)c3)cc2C1=O` [Compound I-100, (R)-2-(1-oxo-6-((3-(pyrrolidin-1-ylmethyl)phenyl)amino)isoindolin-2-yl)-2-phenyl-N-(thiazol-2-yl)acetamide]: the “Activity (% inhibition)” value is “D (a % inhibition of between about 0% to about 25%)”.

On to `O=C(Nc1cc(Br)ccn1)[C@H](c1ccccc1)N1Cc2ccccc2C1=O` [Compound I-29, (S)-N-(4-bromopyridin-2-yl)-2-(1-oxoisoindolin-2-yl)-2-phenylacetamide], for which the “Activity (% inhibition)” value was “A (a % inhibition of about 75%)”.

Take `O=C(NCCN1CCOCC1)c1ccc(-c2ccc3c(c2)C(=O)N([C@@H](C(=O)Nc2nccs2)c2ccccc2)C3)cc1` [Compound I-83, (R)-N-(2-morpholinoethyl)-4-(3-oxo-2-(2-oxo-1-phenyl-2-(thiazol-2-ylamino)ethyl)isoindolin-5-yl)benzamide]: the “Activity (% inhibition)” value is listed as “D (a % inhibition of between about 0% to about 25%)”.

For `O=C(Nc1ncco1)[C@H](c1ccccc1)N1Cc2ccccc2C1=O` [Compound I-20, (S)-N-(oxazol-2-yl)-2-(1-oxoisoindolin-2-yl)-2-phenylacetamide], the “Activity (% inhibition)” value was “A (a % inhibition of about 75%)”.

In the case of `O=C(Nc1nccs1)[C@@H](c1ccccc1)N1Cc2ccc(-c3cccc4cccnc34)cc2C1=O` [Compound I-71, (R)-2-(1-oxo-6-(quinolin-8-yl)isoindolin-2-yl)-2-phenyl-N-(thiazol-2-yl)acetamide], the “Activity (% inhibition)” value was “C (a % inhibition of between about 25% to about 50%)”.

Take `O=C(Nc1ccccn1)[C@@H](c1ccccc1)N1Cc2ccccc2C1=O` [Compound I-31, (R)-2-(1-oxoisoindolin-2-yl)-2-phenyl-N-(pyridin-2-yl) acetamide]: the “Activity (% inhibition)” value is given as “A (a % inhibition of about 75%)”.

With `O=C(Nc1cccnc1)[C@@H](c1ccccc1)N1Cc2ccccc2C1=O` [Compound I-7, (R)-2-(1-oxoisoindolin-2-yl)-2-phenyl-N-(pyridin-3-yl) acetamide], the “Activity (% inhibition)” value is “A (a % inhibition of about 75%)”.

On to `O=C(Nc1nccs1)[C@@H](c1ccccc1)N1Cc2ccc(-c3ccc(C(=O)N4CCOCC4)cc3)cc2C1=O` [Compound I-85, (R)-2-(6-(4-(morpholine-4-carbonyl)phenyl)-1-oxoisoindolin-2-yl)-2-phenyl-N-(thiazol-2-yl)acetamide], for which the “Activity (% inhibition)” value is given as “D (a % inhibition of between about 0% to about 25%)”.

In the case of `CCn1cc(-c2ccc3c(c2)C(=O)N([C@@H](C(=O)Nc2nccs2)c2ccccc2)C3)cn1` [Compound I-63, (R)-2-(6-(1-ethyl-1H-pyrazol-4-yl)-1-oxoisoindolin-2-yl)-2-phenyl-N-(thiazol-2-yl)acetamide], the “Activity (% inhibition)” value is given as “C (a % inhibition of between about 25% to about 50%)”.

`O=C(Nc1nccs1)[C@@H](c1ccccc1)N1Cc2ccc(Nc3cccc(F)c3)cc2C1=O` [Compound I-99, (R)-2-(6-((3-fluorophenyl)amino)-1-oxoisoindolin-2-yl)-2-phenyl-N-(thiazol-2-yl)acetamide]: the “Activity (% inhibition)” value is reported as “C (a % inhibition of between about 25% to about 50%)”.

As to `COC(=O)c1cc(Br)ccc1N[C@@H](C(=O)Nc1nccs1)c1ccccc1` [Compound I-106, methyl (R)-5-bromo-2-((2-oxo-1-phenyl-2-(thiazol-2-ylamino)ethyl)amino)benzoate], the “Activity (% inhibition)” value is on record as “B (a % inhibition of between about 50% to about 75%)”.

In the case of `O=C(Nc1nccs1)[C@@H](c1ccccc1)N1Cc2cc(-c3ccccc3F)ccc2C1=O` [Compound I-101, (R)-2-(5-(2-fluorophenyl)-1-oxoisoindolin-2-yl)-2-phenyl-N-(thiazol-2-yl)acetamide], the “Activity (% inhibition)” value is given as “B (a % inhibition of between about 50% to about 75%)”.

In the case of `C[C@@H](NC(=O)[C@H](c1ccccc1)N1Cc2ccccc2C1=O)c1ccccc1` [Compound I-1, (S)-2-(1-oxoisoindolin-2-yl)-2-phenyl-N-((R)-1-phenylethyl)acetamide], the “Activity (% inhibition)” value was “A (a % inhibition of about 75%)”.

`O=C(Nc1nncs1)[C@H](c1ccccc1)N1Cc2ccccc2C1=O` [Compound I-42, (S)-2-(1-oxoisoindolin-2-yl)-2-phenyl-N-(1,3,4-thiadiazol-2-yl)acetamide]: the “Activity (% inhibition)” value is recorded as “A (a % inhibition of about 75%)”.

As to `O=C(NCCN1CCOCC1)c1csc(NC(=O)[C@@H](c2ccccc2)N2Cc3ccccc3C2=O)n1` [Compound I-10, (R)-N-(2-morpholinoethyl)-2-(2-(1-oxoisoindolin-2-yl)-2-phenylacetamido)thiazole-4-carboxamide], the “Activity (% inhibition)” value was “A (a % inhibition of about 75%)”.

For `O=C(Nc1ncc[nH]1)[C@@H](c1ccccc1)N1Cc2ccccc2C1=O` [Compound I-34, (R)-N-(1H-imidazol-2-yl)-2-(1-oxoisoindolin-2-yl)-2-phenylacetamide], the “Activity (% inhibition)” value was “A (a % inhibition of about 75%)”.

Turning to `O=C(Nc1nccs1)[C@@H](c1ccccc1)N1Cc2ccc(-c3ccncc3)cc2C1=O` [Compound I-61, (R)-2-(1-oxo-6-(pyridin-4-yl)isoindolin-2-yl)-2-phenyl-N-(thiazol-2-yl)acetamide], the “Activity (% inhibition)” value is on record as “C (a % inhibition of between about 25% to about 50%)”.

Consider `O=C(Nc1nccs1)[C@@H](c1ccccc1)N1Cc2ccc(-c3ccccc3)cc2C1=O` [Compound I-59, (R)-2-(1-oxo-6-phenylisoindolin-2-yl)-2-phenyl-N-(thiazol-2-yl)acetamide], for which the “Activity (% inhibition)” value is “C (a % inhibition of between about 25% to about 50%)”.

In the case of `CN(C)CCNC(=O)c1csc(NC(=O)[C@@H](c2ccccc2)N2Cc3ccccc3C2=O)n1` [Compound I-16, (R)-N-(2-(dimethylamino)ethyl)-2-(2-(1-oxoisoindolin-2-yl)-2-phenylacetamido)thiazole-4-carboxamide], the “Activity (% inhibition)” value was “A (a % inhibition of about 75%)”.

Turning to `O=C(Nc1nccs1)[C@@H](c1ccccc1)N1Cc2ccc(-c3ccsc3)cc2C1=O` [Compound I-47, (R)-2-(1-oxo-6-(thiophen-3-yl)isoindolin-2-yl)-2-phenyl-N-(thiazol-2-yl)acetamide], the “Activity (% inhibition)” value was “B (a % inhibition of between about 50% to about 75%)”.

In the case of `O=C(Nc1ncc(Br)s1)[C@H](Cc1ccccc1)N1Cc2ccccc2C1=O` [Compound I-49, (S)-N-(5-bromothiazol-2-yl)-2-(1-oxoisoindolin-2-yl)-3-phenylpropanamide], the “Activity (% inhibition)” value is recorded as “A (a % inhibition of about 75%)”.

With `COC(=O)c1cc(Br)ccc1N[C@H](C(=O)Nc1nccs1)c1ccccc1` [Compound I-107, methyl (S)-5-bromo-2-((2-oxo-1-phenyl-2-(thiazol-2-ylamino)ethyl)amino)benzoate], the “Activity (% inhibition)” value is given as “B (a % inhibition of between about 50% to about 75%)”.

For the molecule `O=C(Nc1nc(C(F)(F)F)cs1)[C@@H](c1ccccc1)N1Cc2ccc(-c3ccc4[nH]ccc4c3)cc2C1=O` [Compound I-132, (R)-2-(6-(1H-indol-5-yl)-1-oxoisoindolin-2-yl)-2-phenyl-N-(4-(trifluoromethyl)thiazol-2-yl)acetamide], the “Activity (% inhibition)” value is on record as “A (a % inhibition of about 75%)”.

With `CN(C)CCNC(=O)c1cccc(-c2ccc3c(c2)C(=O)N([C@@H](C(=O)Nc2nccs2)c2ccccc2)C3)c1` [Compound I-88, (R)-N-(2-(dimethylamino)ethyl)-3-(3-oxo-2-(2-oxo-1-phenyl-2-(thiazol-2-ylamino)ethyl)isoindolin-5-yl)benzamide], the “Activity (% inhibition)” value was “C (a % inhibition of between about 25% to about 50%)”.

Turning to `CN(C)CCCNC(=O)c1csc(NC(=O)[C@@H](c2ccccc2)N2Cc3ccccc3C2=O)n1` [Compound I-11, (R)-N-(3-(dimethylamino)propyl)-2-(2-(1-oxoisoindolin-2-yl)-2-phenylacetamido)thiazole-4-carboxamide], the “Activity (% inhibition)” value is reported as “A (a % inhibition of about 75%)”.

For the molecule `O=C(Nc1nccs1)C(c1ccccn1)N1Cc2ccc(-c3ccc4[nH]ccc4c3)cc2C1=O` (stereo not shown) [Compound I-123, 2-(6-(1H-indol-5-yl)-1-oxoisoindolin-2-yl)-2-(pyridin-2-yl)-N-(thiazol-2-yl)acetamide], the “Activity (% inhibition)” value is “D (a % inhibition of between about 0% to about 25%)”.

For `O=C(Nc1nccs1)[C@@H](c1ccccc1)N1Cc2ccc(-c3cccnc3)cc2C1=O` [Compound I-60, (R)-2-(1-oxo-6-(pyridin-3-yl)isoindolin-2-yl)-2-phenyl-N-(thiazol-2-yl)acetamide], the “Activity (% inhibition)” value is “C (a % inhibition of between about 25% to about 50%)”.

As for `O=C(Nc1nccs1)[C@@H](c1ccccc1)N1Cc2ccc(-c3cncnc3)cc2C1=O` [Compound I-62, (R)-2-(1-oxo-6-(pyrimidin-5-yl)isoindolin-2-yl)-2-phenyl-N-(thiazol-2-yl)acetamide], the “Activity (% inhibition)” value is recorded as “B (a % inhibition of between about 50% to about 75%)”.

On to `O=C(Nc1ncccc1Cl)[C@@H](c1ccccc1)N1Cc2ccccc2C1=O` [Compound I-57, (R)-N-(3-chloropyridin-2-yl)-2-(1-oxoisoindolin-2-yl)-2-phenylacetamide], for which the “Activity (% inhibition)” value is on record as “A (a % inhibition of about 75%)”.

In the case of `O=C(Nc1nc(C(=O)N2CCC(N3CCOCC3)CC2)cs1)[C@@H](c1ccccc1)N1Cc2ccccc2C1=O` [Compound I-24, (R)-N-(4-(4-morpholinopiperidine-1-carbonyl)thiazol-2-yl)-2-(1-oxoisoindolin-2-yl)-2-phenylacetamide], the “Activity (% inhibition)” value is recorded as “A (a % inhibition of about 75%)”.
